From EPA's ToxValDB 9.5 (doi:10.2903/j.efsa.2013.3181)
Values after ≈ are worked out from the molar mass of the structure shown.

Experiments:
Lepomis macrochirus = details: acute; duration: 96 hours; mortality
Daphnia magna = details: chronic/long-term; duration: 21 days; reproduction
Anas platyrhynchos = details: reproductive
Apis mellifera = details: acute; duration: 48 hours; oral; unspecified; mortality
Pimephales promelas = details: chronic/long-term; duration: 28 days; body weight
Canidae = details: chronic; duration: 1 years; oral; Dog Other; clinical signs
Mus musculus = details: acute; oral; F; mortality
Bibionidae = details: chronic/long-term; duration: 28 days; no effects
Colinus virginianus = details: for LD50: acute, oral, mortality
Typhlodromus pyri = assay: LR50; higher = less toxic; details: chronic/long-term; duration: 7 days; mortality
Aphidius rhopalosiphi = assay: LR50; higher = less toxic; details: acute; duration: 48 hours; mortality

CC(C)C1CCC(Cc2ccc(Cl)cc2)C1(O)Cn1cncn1 (stereo not drawn) [Ipconazole]
LC50 (Lepomis macrochirus): 1.3 µg/mL (≈ 3.89 µM) | LD50 (Rattus norvegicus; acute, oral, F, mortality): > 2000 mg/kg | NOAEL (Rattus norvegicus; developmental, development): 3 mg/kg-day | NOAEL (Rattus norvegicus; reproduction developmental, body weight): 8 mg/kg-day | NOEC (Daphnia magna): 10.9 µg/L | NOEL (Anas platyrhynchos): 27.1 mg/kg-day | LD50 (Apis mellifera): > 100 µg/piece | LC50 (Tagia sp.; acute, duration: 14 days, mortality): 597 mg/kg | NOEC (Tagia sp.; chronic/long-term, duration: 8 weeks, reproduction): 0.78 mg/kg | NOEC (Pimephales promelas): 0.44 µg/L | NOAEL (Canidae): 1.5 mg/kg-day | LD50 (Mus musculus): 468 mg/kg | NOEC (Bibionidae): 3.52 mg/L | LD50 (Colinus virginianus; diet): > 300 mg/kg-day | LD50 (Colinus virginianus): 962 mg/kg | NOEL (Colinus virginianus; reproduction developmental): 4.3 mg/kg-day | LR50 (Typhlodromus pyri): 17.4 g/ha | LR50 (Aphidius rhopalosiphi): 35.1 g/ha
